Laboratory results published in patent US20060194814A1, “Benzamide compounds” (priority 2003, published 2006).
Entries after “also recorded” stand apart in the source; their conditions may differ. Where two headings read alike, the source gives them in different places.

Columns and labels:
HIV-1 IIIB strain [1] = assay: HIV-1 IIIB replication in HeLa indicator cells (AV-Finder-HIV assay), no pre-medication; assay type: cell-based; details: for efficacy in reducing HIV-1 IIIB replication compared to AZT, ddI or 3TC: human cells
HIV-1 IIIB strain [2] = assay: HIV-1 IIIB replication in HeLa cells, 24 hours pre-medication; assay type: cell-based
HIV-1 IIIB strain [3] = assay: HIV-1 IIIB replication in HeLa cells, 48 hours pre-medication; assay type: cell-based; details: 48 hours pretreatment, read-out: IC50 of inhibition of HIV replication
[4] = system: multi-drug resistant HIV MDR-769 strain; assay: HIV MDR 769 strain replication in HeLa cells, without pre-medication; assay type: cell-based
HeLa cells = assay: MTT cytotoxicity assay after the HIV replication protocol; assay type: cell-based, human; details: MTT cytotoxicity assay
[5] = system: Y1 mouse adrenal tumor cells; assay: dbcAMP-induced 20á-hydroxyprogesterone synthesis in Y1 cells; assay type: cell-based
Method: Culture media were then changed and cells were stimulated with 1 mM dbcAMP and the treatment for 24 to 48 hours. […] The synthesis of 20 —OH progesterone and progesterone in Y1 and MA-10 cell media respectively were measured by RIA (Brown et al., 1992). H295R human adrenal tumor cells were seeded in 48-well plates at 10^5 cells/well and incubated for 24 hours. […] At the end of the incubation time period, cells were treated with 1 mM dbcAMP for 48 hours. Cortisol levels in the media were determined by radioimmunoassay as previously described (Amri et al., 1996).

[6] = no pre-medication, concentrations up to 1 μM

With `Nc1ccn([C@@H]2CS[C@H](CO)O2)c(=O)n1` [3TC] the “inhibition of HIV-1 IIIB viral replication reached” value (HIV-1 IIIB strain [1]; no pre-medication, maximal inhibition reached (maximal concentrations)) was 90%.
In the case of `Cc1cn([C@H]2C[C@H](N=[N+]=[N-])[C@@H](CO)O2)c(=O)[nH]c1=O` [AZT], the “inhibition of the replication” value (HIV-1 IIIB strain [2]; at 30 pM) is reported as under 30%, the IC50 (HIV-1 IIIB strain [3]) is reported as 30 nM and the “effect on HIV MDR 769 strain replication” value [4] is reported as “not effective; also recorded: ineffective”. It also gave an IC50 (HeLa cells) of 161 µM.
In the case of `O=c1[nH]cnc2c1ncn2[C@H]1CC[C@@H](CO)O1` [ddI], the “strongest inhibition of viral replication” value (HIV-1 IIIB strain [1]; no pre-medication, at 0.01 μM) is reported as 26.37±26.11% and the IC50 (HeLa cells) is reported as 89 µM.
For `CCN(CC)CCNC(=O)c1ccc(N)cc1` [SP100, procainamide], the “efficacy in reducing HIV-1 IIIB replication compared to AZT, ddI or 3TC” value (HIV-1 IIIB strain [1]) was “efficacy higher than AZT, ddI or 3TC”, the “efficacy on viral replication compared to AZT” value (HIV-1 IIIB strain [2]) was “effective but at the same extent as AZT” and the “effect on HIV MDR 769 strain replication” value [4] was “effectively blocked”.
In the case of `CC1CN(C(=O)C(Cc2c[nH]c3ccccc23)NC(=O)c2ccc([N+](=O)[O-])cc2)CCN1C(=O)C1CC1` (stereo not drawn) [SP010, N-[2-(4-cyclopropanecarbonyl-3-methyl-piperazin-1-yl)-1-(1H-indol-3-yl-methyl)-2-oxo-ethyl]-4-nitro-benzamide], the inhibition at 0.01 µM (HIV-1 IIIB strain [1]; Human immunodeficiency virus 1, IIIB, HeLa, no pre-medication, at 0.01 μM, read-out: strongest inhibition of viral replication) is reported as 55.6 ± 2.12%, the “efficacy in reducing HIV-1 IIIB replication compared to AZT, ddI or 3TC” value (HIV-1 IIIB strain [1]) is reported as “efficacy higher than AZT, ddI or 3TC” and the “inhibition of viral replication” value (HIV-1 IIIB strain [1]; [6]) is reported as 40%. The “potency compared to ddI” value (HIV-1 IIIB strain [1]; [6]) was “more potent that ddI”, the “efficacy in inhibiting viral replication compared to ddI” value (HIV-1 IIIB strain [1]; within the range of 1 nM to 1 μM) was “higher efficacy than ddI” and the “concentration at the peak of the inhibitory activity” value (HIV-1 IIIB strain [2]) was 0.03 nM. The IC50 (HIV-1 IIIB strain [3]; Human immunodeficiency virus 1, IIIB, HeLa) was 0.01 nM, the “effect on HIV MDR 769 strain replication” value [4] was “effectively blocked” and the “maximal inhibition of MDR HIV strain replication” value [4] was 50%. The “effect on dbcAMP-induced 20á-hydroxyprogesterone production” value ([5]; Y1 cells) was “decreased in a dose-dependent manner” and the “potency on cAMP-corticosteroid formation compared to procaine” value ([5]; even at a concentration as low as 1 μM) was “as potent as procaine”.
